Laboratory results taken from patent publication US10787452B2 (Vertex Pharmaceuticals Incorporated, priority 2012, dated 2020).

What follows are molecules tested on HCT116 colorectal cancer cells (assay: Cisplatin sensitization assay (96 h cell viability MTS)). Details: 96 h MTS, compound plus Cisplatin.
Format: cell-based
How it was run: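 Cisplatin and compound are dosed at the same time, both serially diluted 2-fold from 10 μM final across a full matrix. Plates sit at 37° C in 5% CO2 for 96 h before MTS addition.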
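Further: compound concentration needed to lower the Cisplatin-alone IC50 by a set fold.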

**Q.** With `N#CCc1cnc2c(C(=O)Nc3cnccc3OC3CCC3)c(N)nn2c1` [I-O-36, 2-amino-6-(cyanomethyl)-N-(4-cyclobutoxypyridin-3-yl)pyrazolo[1,5-a]pyrimidine-3-carboxamide] as the molecule, how does the “Cisplatin Sensitization Assay” value read?
**A.** Its value is “+++ (Compounds with a Cisplatin sensitization value of <0.02 μM are marked with “+++.”)”.

**Q.** Which “Cisplatin Sensitization Assay” value does the source give for `N#CCc1cnc2c(C(=O)Nc3cnccc3OC3COC3)c(N)nn2c1` [I-O-38, 2-amino-6-(cyanomethyl)-N-(4-(oxetan-3-yloxy)pyridin-3-yl)pyrazolo[1,5-a]pyrimidine-3-carboxamide] here?
**A.** The value was “+++ (Compounds with a Cisplatin sensitization value of <0.02 μM are marked with “+++.”)”.

**Q.** With `N#CCc1cnc2c(C(=O)Nc3cnccc3OC3CCCCC3)c(N)nn2c1` [I-O-39, 2-amino-6-(cyanomethyl)-N-(4-(cyclohexyloxy)pyridin-3-yl)pyrazolo[1,5-a]pyrimidine-3-carboxamide] as the molecule, how does the “Cisplatin Sensitization Assay” value read?
**A.** Its value is “+++ (Compounds with a Cisplatin sensitization value of <0.02 μM are marked with “+++.”)”.

**Q.** With `N#CCc1cnc2c(C(=O)Nc3cnccc3OCCCO)c(N)nn2c1` [I-O-40, 2-amino-6-(cyanomethyl)-N-(4-(3-hydroxypropoxy)pyridin-3-yl)pyrazolo[1,5-a]pyrimidine-3-carboxamide] as the molecule, how does the “Cisplatin Sensitization Assay” value read?
**A.** Its value is “++ (Compounds with a Cisplatin sensitization value >0.02 μM but <0.2 μM are marked with “++.”)”.

**Q.** `N#CCc1cnc2c(C(=O)Nc3cnccc3OC3CCCOC3)c(N)nn2c1` (centres unmarked) [I-O-41, 2-amino-6-(cyanomethyl)-N-(4-((tetrahydro-2H-pyran-3-yl)oxy)pyridin-3-yl)pyrazolo[1,5-a]pyrimidine-3-carboxamide] was tested. Which “Cisplatin Sensitization Assay” value did it give?
**A.** The value was “+++ (Compounds with a Cisplatin sensitization value of <0.02 μM are marked with “+++.”)”.

**Q.** For `N#CCc1cnc2c(C(=O)Nc3cnccc3O[C@H]3CCOC3)c(N)nn2c1` [I-O-42, (S)-2-amino-6-(cyanomethyl)-N-(4-((tetrahydrofuran-3-yl)oxy)pyridin-3-yl)pyrazolo[1,5-a]pyrimidine-3-carboxamide], which “Cisplatin Sensitization Assay” value is on record?
**A.** Its value is “+++ (Compounds with a Cisplatin sensitization value of <0.02 μM are marked with “+++.”)”.

**Q.** `N#CCc1cnc2c(C(=O)Nc3cnccc3OC3CCCC3)c(N)nn2c1` [I-O-43, 2-amino-6-(cyanomethyl)-N-(4-(cyclopentyloxy)pyridin-3-yl)pyrazolo[1,5-a]pyrimidine-3-carboxamide] was tested. Which “Cisplatin Sensitization Assay” value did it give?
**A.** The value was “+++ (Compounds with a Cisplatin sensitization value of <0.02 μM are marked with “+++.”)”.

**Q.** Which “Cisplatin Sensitization Assay” value does the source give for `Nc1nn2cc(F)cnc2c1C(=O)Nc1cnccc1OC1CC[S+]([O-])CC1` (centres unmarked) [I-O-44, 2-amino-6-fluoro-N-(4-((1-oxidotetrahydro-2H-thiopyran-4-yl)oxy)pyridin-3-yl)pyrazolo[1,5-a]pyrimidine-3-carboxamide] here?
**A.** The value was “++ (Compounds with a Cisplatin sensitization value >0.02 μM but <0.2 μM are marked with “++.”)”.

**Q.** How did the “Cisplatin Sensitization Assay” value turn out when `Nc1nn2cc(F)cnc2c1C(=O)Nc1cnccc1OC1CCS(=O)(=O)CC1` [I-O-45, 2-amino-N-(4-((1,1-dioxidotetrahydro-2H-thiopyran-4-yl)oxy)pyridin-3-yl)-6-fluoropyrazolo[1,5-a]pyrimidine-3-carboxamide] was run?
**A.** Its value is “+++ (Compounds with a Cisplatin sensitization value of <0.02 μM are marked with “+++.”)”.

**Q.** With `CN1CCC(Oc2c(Cl)cncc2NC(=O)c2c(N)nn3cc(Cl)cnc23)CC1` [I-O-46, 2-amino-6-chloro-N-(5-chloro-4-((1-methylpiperidin-4-yl)oxy)pyridin-3-yl)pyrazolo[1,5-a]pyrimidine-3-carboxamide] as the molecule, how does the “Cisplatin Sensitization Assay” value read?
**A.** The value was “+ (Compounds with a Cisplatin sensitization value >0.2 μM but <5 μM are marked with “+.”)”.

**Q.** Which “Cisplatin Sensitization Assay” value does the source give for `CN(C)CCOCCOc1ccncc1NC(=O)c1c(N)nn2cc(Cl)cnc12` [I-O-47, 2-amino-6-chloro-N-(4-(2-(2-(dimethylamino)ethoxy)ethoxy)pyridin-3-yl)pyrazolo[1,5-a]pyrimidine-3-carboxamide] here?
**A.** Its value is “+ (Compounds with a Cisplatin sensitization value >0.2 μM but <5 μM are marked with “+.”)”.

**Q.** `CN(C)CCOc1ccncc1NC(=O)c1c(N)nn2cc(Cl)cnc12` [I-O-48, 2-amino-6-chloro-N-(4-(2-(dimethylamino)ethoxy)pyridin-3-yl)pyrazolo[1,5-a]pyrimidine-3-carboxamide] was tested. Which “Cisplatin Sensitization Assay” value did it give?
**A.** The value was “++ (Compounds with a Cisplatin sensitization value >0.02 μM but <0.2 μM are marked with “++.”)”.

**Q.** With `CN1CCC[C@@H]1COc1ccncc1NC(=O)c1c(N)nn2cc(Cl)cnc12` [I-O-49, (R)-2-amino-6-chloro-N-(4-((1-methylpyrrolidin-2-yl)methoxy)pyridin-3-yl)pyrazolo[1,5-a]pyrimidine-3-carboxamide] as the molecule, how does the “Cisplatin Sensitization Assay” value read?
**A.** The value was “+ (Compounds with a Cisplatin sensitization value >0.2 μM but <5 μM are marked with “+.”)”.

**Q.** `CN1CCC[C@H]1COc1ccncc1NC(=O)c1c(N)nn2cc(Cl)cnc12` [I-O-50, (S)-2-amino-6-chloro-N-(4-((1-methylpyrrolidin-2-yl)methoxy)pyridin-3-yl)pyrazolo[1,5-a]pyrimidine-3-carboxamide] was tested. Which “Cisplatin Sensitization Assay” value did it give?
**A.** The value was “+ (Compounds with a Cisplatin sensitization value >0.2 μM but <5 μM are marked with “+.”)”.

**Q.** `CN(C)CCCOc1ccncc1NC(=O)c1c(N)nn2cc(Cl)cnc12` [I-O-52, 2-amino-6-chloro-N-(4-(3-(dimethylamino)propoxy)pyridin-3-yl)pyrazolo[1,5-a]pyrimidine-3-carboxamide] was tested. Which “Cisplatin Sensitization Assay” value did it give?
**A.** The value was “+ (Compounds with a Cisplatin sensitization value >0.2 μM but <5 μM are marked with “+.”)”.

**Q.** How did the “Cisplatin Sensitization Assay” value turn out when `Nc1nn2cc(Cl)cnc2c1C(=O)Nc1cnccc1OCCCO` [I-O-53, 2-amino-6-chloro-N-(4-(3-hydroxypropoxy)pyridin-3-yl)pyrazolo[1,5-a]pyrimidine-3-carboxamide] was run?
**A.** The value was “+++ (Compounds with a Cisplatin sensitization value of <0.02 μM are marked with “+++.”)”.

**Q.** For `COCCOc1ccncc1NC(=O)c1c(N)nn2cc(Cl)cnc12` [I-O-55, 2-amino-6-chloro-N-(4-(2-methoxyethoxy)pyridin-3-yl)pyrazolo[1,5-a]pyrimidine-3-carboxamide], which “Cisplatin Sensitization Assay” value is on record?
**A.** Its value is “++ (Compounds with a Cisplatin sensitization value >0.02 μM but <0.2 μM are marked with “++.”)”.

**Q.** Which “Cisplatin Sensitization Assay” value does the source give for `CCOc1ccncc1NC(=O)c1c(N)nn2cc(Cl)cnc12` [I-O-56, 2-amino-6-chloro-N-(4-ethoxypyridin-3-yl)pyrazolo[1,5-a]pyrimidine-3-carboxamide] here?
**A.** The value was “+++ (Compounds with a Cisplatin sensitization value of <0.02 μM are marked with “+++.”)”.

**Q.** `COc1ccncc1NC(=O)c1c(N)nn2cc(Cl)cnc12` [I-O-57, 2-amino-6-chloro-N-(4-methoxypyridin-3-yl)pyrazolo[1,5-a]pyrimidine-3-carboxamide] was tested. Which “Cisplatin Sensitization Assay” value did it give?
**A.** The value was “+++ (Compounds with a Cisplatin sensitization value of <0.02 μM are marked with “+++.”)”.

**Q.** Which “Cisplatin Sensitization Assay” value does the source give for `Nc1nn2cc(Cl)cnc2c1C(=O)Nc1cnccc1O[C@H]1CCOC1` [I-O-58, (S)-2-amino-6-chloro-N-(4-((tetrahydrofuran-3-yl)oxy)pyridin-3-yl)pyrazolo[1,5-a]pyrimidine-3-carboxamide] here?
**A.** The value was “+++ (Compounds with a Cisplatin sensitization value of <0.02 μM are marked with “+++.”)”.
